Measured values: ChEMBL document CHEMBL3098066, “Minimum active structure of insulin-like peptide 5” (J Med Chem, 2013)
Activity calls are given as the source filed them. Where a SMILES comes first, the peptide text is derived from it. Bridges are numbered along the chain shown (N, C = ends). The star is where a group is joined. Acm = CC(=O)NC*; tBu = CC(C)(C)*; Cam = NC(=O)C*

Columns and labels:
[1] = target: Relaxin-3 receptor 2 (Homo sapiens) (UniProt Q8TDU9); assay: Displacement of Eu(A)-mINSL5 acid from human RXFP4 transfected in CHO-K1 cells by fluorescence-based assay; type: cell-based
[2] = target: Relaxin-3 receptor 2 (Homo sapiens) (UniProt Q8TDU9); assay: Agonist activity at human RXFP4 transfected in CHO-K1 cells assessed as inhibition of forskolin-induced cAMP production by beta-galactosidase reporter gene assay; type: functional, cell-based
[3] = target: Relaxin-3 receptor 2 (Homo sapiens) (UniProt Q8TDU9); assay: Agonist activity at human RXFP4 transfected in CHO-K1 cells at 0.01 nM to 1000 nM by beta-galactosidase reporter gene assay relative to forskolin; type: functional, cell-based
[4] = target: Relaxin-3 receptor 2 (Homo sapiens) (UniProt Q8TDU9); assay: Agonist activity at human RXFP4 transfected in CHO-K1 cells at 10 uM by beta-galactosidase reporter gene assay relative to forskolin; type: functional, cell-based
[5] = target: Relaxin-3 receptor 2 (Homo sapiens) (UniProt Q8TDU9); assay: Agonist activity at human RXFP4 transfected in CHO-K1 cells up to 10 uM by beta-galactosidase reporter gene assay relative to forskolin; type: functional, cell-based

Chain of Relaxin-3 receptor 2 (Homo sapiens) (Q8TDU9 whole entry): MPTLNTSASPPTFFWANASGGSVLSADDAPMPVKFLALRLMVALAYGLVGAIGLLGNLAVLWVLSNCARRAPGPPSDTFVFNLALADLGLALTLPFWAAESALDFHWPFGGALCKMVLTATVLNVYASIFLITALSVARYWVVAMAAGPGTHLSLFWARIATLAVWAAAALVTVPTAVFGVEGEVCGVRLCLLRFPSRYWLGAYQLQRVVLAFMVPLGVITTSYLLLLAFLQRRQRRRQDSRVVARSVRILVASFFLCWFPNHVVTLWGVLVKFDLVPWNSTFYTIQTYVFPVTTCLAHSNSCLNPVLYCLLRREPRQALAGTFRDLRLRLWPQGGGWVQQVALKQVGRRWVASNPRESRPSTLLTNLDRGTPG

CSCC[C@H](NC(=O)[C@H](CO)NC(=O)[C@H](CSCC(N)=O)NC(=O)CNC(=O)[C@H](CCC(=O)O)NC(=O)[C@H](CCCNC(=N)N)NC(=O)[C@H](CSC(C)(C)C)NC(=O)[C@H](CSCC(N)=O)NC(=O)[C@H](CC(C)C)NC(=O)[C@H](C)NC(=O)[C@H](CCC(N)=O)NC(=O)[C@H](CC(C)C)NC(=O)[C@H](CC(=O)O)NC(=O)[C@@H](N)CCCNC(=N)N)C(=O)N[C@@H](CCCCN)C(=O)N[C@@H](CCC(=O)O)C(=O)N[C@@H](CC(C)C)C(=O)N[C@@H](CO)C(=O)N[C@H](C(=O)N[C@@H](CC(C)C)C(=O)N[C@@H](CSCNC(C)=O)C(=O)O)[C@@H](C)O (H-RDLQALC(Cam)C(tBu)REGC(Cam)SMKELSTLC(Acm)-OH)
inactive: pIC50 [1] | pEC50 [2] | Emax [3]

CSCC[C@H](NC(=O)[C@H](CO)NC(=O)[C@@H]1CSSC[C@H](NC(=O)[C@H](CC(C)C)NC(=O)[C@H](C)NC(=O)[C@H](CCC(N)=O)NC(=O)[C@H](CC(C)C)NC(=O)[C@H](CC(=O)O)NC(=O)[C@@H](N)CCCNC(=N)N)C(=O)N[C@@H](CSC(C)(C)C)C(=O)N[C@@H](CCCNC(=N)N)C(=O)N[C@@H](CCC(=O)O)C(=O)NCC(=O)N1)C(=O)N[C@@H](CCCCN)C(=O)N[C@@H](CCC(=O)O)C(=O)N[C@@H](CC(C)C)C(=O)N[C@@H](CO)C(=O)N[C@H](C(=O)N[C@@H](CC(C)C)C(=O)N[C@@H](CSCNC(C)=O)C(=O)O)[C@@H](C)O (H-RDLQALCC(tBu)REGCSMKELSTLC(Acm)-OH; disulfide 7-12)
inactive: pIC50 [1] | pEC50 [2] | Emax [3]

H-SRQTVKLAGLDYVRTVIYIAASSRW-OH
inactive: pIC50 [1] | Emax [4] | pEC50 [2]

H-SRQTVKLAGLDYVRTVIYIAR-OH
inactive: pIC50 [1] | Emax [5] | pEC50 [2]
